Source: patent publication US12624018B1, “Inhibitors of RIPK2 and medical uses thereof” (Odyssey Therapeutics, Inc., priority 2022, dated 2026)
pIC50: −log10 of the molar value.

What follows are compounds tested against T1, RIPK2 enzyme (Homo sapiens, UniProt O43353) (assay: RIPK2 inhibition (ADP-Glo Kinase Assay)). Conditions: RIPK2 5 nM, ATP 150 μM, MBP substrate, read-out: RIPK2 IC50.
T1 construct: purchased Carna 09-128
Assay type: biochemical
In short: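 Human RIPK2 (5 nM) preincubated with compound 30 min at room temperature in 50 mM HEPES pH 7.5, 10 mM MgCl2, 2 mM DTT, 1 mM EGTA, 0.01% Brij-35, 0.05% BSA; native swine MBP as substrate. ADP formed quantified by ADP-Glo luminescence; percent inhibition relative to DMSO and no-enzyme controls.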

T1 sequence (O43353 1-299 limits assumed): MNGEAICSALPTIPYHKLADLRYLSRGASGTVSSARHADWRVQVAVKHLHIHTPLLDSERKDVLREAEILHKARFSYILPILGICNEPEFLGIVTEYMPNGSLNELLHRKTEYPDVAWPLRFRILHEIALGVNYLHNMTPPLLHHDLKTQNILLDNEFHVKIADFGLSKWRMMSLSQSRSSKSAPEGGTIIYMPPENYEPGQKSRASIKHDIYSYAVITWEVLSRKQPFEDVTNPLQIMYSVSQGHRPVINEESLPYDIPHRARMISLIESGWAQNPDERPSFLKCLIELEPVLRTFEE

Question: `Cc1cc(CC(=O)Nc2cnn(C(C)(C)C)c2)ccc1Oc1ccnc2ccc(OC3CCNC(C)C3)cc12` (racemic) [Compound 221, N-(1-(tert-butyl)-1H-pyrazol-4-yl)-2-(3-methyl-4-((6-((-2-methyl-piperidin-4-yl)oxy)quinolin-4-yl)oxy)phenyl) acetamide] was tested. Which pIC50 did it give?
Answer: The pIC50 was greater than 8.60.

Question: How did the pIC50 turn out when `CC(C)(C)n1cc(NC(=O)Cc2ccc(Oc3ccnc4ccc(N5CCNCC5=O)cc34)cc2F)cn1` [Compound 155, N-(1-(tert-butyl)-1H-pyrazol-4-yl)-2-(2-fluoro-4-((6-(2-oxopiperazin-1-yl)quinolin-4-yl)oxy)phenyl) acetamide] was run?
Answer: Its pIC50 is 8.60.

Question: With `CNC(=O)c1cc2c(Oc3cc(F)c(CC(=O)Nc4cnn(C(C)(C)C)c4)cc3C)ncnc2cc1OC` [Compound 440, 4-(4-(2-((1-(tert-butyl)-1H-pyrazol-4-yl)amino)-2-oxoethyl)-5-fluoro-2-methylphenoxy)-7-methoxy-N-methylquinazoline-6-carboxamide] as the compound, how does the pIC50 read?
Answer: The pIC50 was greater than 8.60.

Question: How did the pIC50 turn out when `Cn1nc(NC(=O)Cc2ccc(Oc3ccnc4ccc(S(C)(=O)=O)cc34)cc2F)cc1C1CC1` [Compound 146, N-(5-cyclopropyl-1-methyl-1H-pyrazol-3-yl)-2-(2-fluoro-4-((6-(methylsulfonyl)quinolin-4-yl)oxy)phenyl)acetamide] was run?
Answer: The pIC50 was greater than 8.60.

Question: With `Cc1cc(CC(=O)Nc2cnn(C(C)(C)C)c2)c(F)cc1Oc1ccnc2ccc(C(C)(C)C#N)cc12` [Compound 411, N-(1-(tert-butyl)-1H-pyrazol-4-yl)-2-(4-((6-(2-cyanopropan-2-yl)quinolin-4-yl)oxy)-2-fluoro-5-methylphenyl)acetamide] as the compound, how does the pIC50 read?
Answer: The pIC50 was greater than 8.60.

Question: With `Cc1cc(CC(=O)Nc2cnn(C(C)(C)C)c2)c(F)cc1Oc1ccnc2ccc(CN3C[C@@H]4C[C@H]3CN4)cc12` [Compound 420, 2-(4-((6-(((1S,4S)-2,5-diazabicyclo[2.2.1]heptan-2-yl)methyl)quinolin-4-yl)oxy)-2-fluoro-5-methylphenyl)-N-(1-(tert-butyl)-1H-pyrazol-4-yl)acetamide] as the compound, how does the pIC50 read?
Answer: The pIC50 was greater than 8.60.

Question: How did the pIC50 turn out when `Cc1cc(CC(=O)Nc2cnn(C(C)(C)C)c2)c(F)cc1Oc1ccnc2ccc(C(=O)N[C@H]3C[C@H](O)C3)cc12` [Compound 393, 4-(4-(2-((1-(tert-butyl)-1H-pyrazol-4-yl)amino)-2-oxoethyl)-5-fluoro-2-methyl-phenoxy)-N-((1r,3r)-3-hydroxy-cyclobutyl) quinoline-6-carboxamide] was run?
Answer: Its pIC50 is greater than 8.60.

Question: With `Cc1cc(CC(=O)Nc2cnn(C(C)(C)C)c2)ccc1Oc1ccnc2ccc([S+](C)[O-])cc12` (single isomer, unassigned) [Compound 322, N-(1-(tert-butyl)-1H-pyrazol-4-yl)-2-(3-methyl-4-((6-(methylsulfinyl)quinolin-4-yl)oxy)phenyl)acetamide] as the compound, how does the pIC50 read?
Answer: Its pIC50 is greater than 8.60.

Question: `Cc1c(Oc2ccnc3ccc(C(=O)NC4CNC4)cc23)ccc(CC(=O)Nc2cnn(C(C)(C)C)c2)c1F` [Compound 405, N-(azetidin-3-yl)-4-(4-(2-((1-(tert-butyl)-1H-pyrazol-4-yl)amino)-2-oxoethyl)-3-fluoro-2-methylphenoxy)quinoline-6-carboxamide] was tested. Which pIC50 did it give?
Answer: Its pIC50 is greater than 8.60.

Question: How did the pIC50 turn out when `Cc1cc(CC(=O)Nc2cnn(C(C)(C)C)c2)c(F)cc1Oc1ccnc2ccc(-c3ncnn3C)cc12` [Compound 428, N-(1-(tert-butyl)-1H-pyrazol-4-yl)-2-(2-fluoro-5-methyl-4-((6-(1-methyl-1H-1,2,4-triazol-5-yl)quinolin-4-yl)oxy)phenyl)acetamide] was run?
Answer: Its pIC50 is greater than 8.60.

Question: How did the pIC50 turn out when `CC(C)(C)n1cc(NC(=O)Cc2ccc(Oc3ncnc4ccc(N5CCOCC5)cc34)cc2F)cn1` [Compound 14, N-(1-(tert-butyl)-1H-pyrazol-4-yl)-2-(2-fluoro-4-((6-morpholinoquinazolin-4-yl)oxy)phenyl)acetamide] was run?
Answer: Its pIC50 is 7.63.

Question: With `Cc1c(Oc2ccnc3ccc(S(=O)(=O)N4CC(C#N)C4)cc23)ccc(CC(=O)Nc2cnn(C(C)(C)C)c2)c1F` [Compound 273, N-(1-(tert-butyl)-1H-pyrazol-4-yl)-2-(4-((6-((3-cyanoazetidin-1-yl)sulfonyl)quinolin-4-yl)oxy)-2-fluoro-3-methylphenyl)acetamide] as the compound, how does the pIC50 read?
Answer: The pIC50 was greater than 8.60.

Question: `Cc1cc(CC(=O)Nc2cnn(C(C)(C)C)c2)ccc1Oc1ccnc2ccc(-c3ncc(CO)cn3)cc12` [Compound 244, N-(1-(tert-butyl)-1H-pyrazol-4-yl)-2-(4-((6-(5-(hydroxymethyl)pyrimidin-2-yl)quinolin-4-yl)oxy)-3-methylphenyl)acetamide] was tested. Which pIC50 did it give?
Answer: Its pIC50 is greater than 8.60.

Question: How did the pIC50 turn out when `Cc1cc(CC(=O)Nc2cnn(C(C)(C)C)c2)c(F)cc1Oc1ccnc2ccc(P(C)(C)=O)cc12` [Compound 381, N-(1-(tert-butyl)-1H-pyrazol-4-yl)-2-(4-((6-(dimethylphosphoryl)quinolin-4-yl)oxy)-2-fluoro-5-methylphenyl) acetamide] was run?
Answer: Its pIC50 is greater than 8.60.

Question: How did the pIC50 turn out when `Cc1c(Oc2ccnc3ccc(P(C)(C)=O)cc23)ccc(CC(=O)Nc2cnn(C(C)(C)C)c2)c1F` [Compound 300, N-(1-(tert-butyl)-1H-pyrazol-4-yl)-2-(4-((6-(dimethylphosphoryl)quinolin-4-yl)oxy)-2-fluoro-3-methylphenyl) acetamide] was run?
Answer: Its pIC50 is greater than 8.60.

Question: With `CC(C)(C)n1cc(NC(=O)Cc2ccc(Oc3ccnc4ccc(N5CCCCC5=O)cc34)cc2F)cn1` [Compound 153, N-(1-(tert-butyl)-1H-pyrazol-4-yl)-2-(2-fluoro-4-((6-(2-oxopiperidin-1-yl)quinolin-4-yl)oxy)phenyl) acetamide] as the compound, how does the pIC50 read?
Answer: The pIC50 was 8.57.

Question: How did the pIC50 turn out when `COc1ccc2ncnc(Oc3cnc(CC(=O)Nc4cc(C(C)(C)C)ncn4)c(F)c3)c2c1` [Compound 33, N-(6-(tert-butyl)pyrimidin-4-yl)-2-(3-fluoro-5-((6-methoxy-quinazolin-4-yl)oxy)pyridin-2-yl)acetamide] was run?
Answer: The pIC50 was 7.07.

Question: With `COc1cc2ncnc(Oc3cc(F)c(CC(=O)Nc4cnn(C(C)(C)C)c4)cc3C)c2cc1C(N)=O` [Compound 439, 4-(4-(2-((1-(tert-butyl)-1H-pyrazol-4-yl)amino)-2-oxoethyl)-5-fluoro-2-methylphenoxy)-7-methoxyquinazoline-6-carboxamide] as the compound, how does the pIC50 read?
Answer: The pIC50 was greater than 8.60.

Question: With `Cc1cc(CC(=O)Nc2cnn(C(C)(C)C)c2)c(F)cc1Oc1ncnc2ccc(OC3CCN(C)CC3)cc12` [Compound 117, N-(1-(tert-butyl)-1H-pyrazol-4-yl)-2-(2-fluoro-5-methyl-4-((6-((1-methyl-piperidin-4-yl)oxy)quinazolin-4-yl)oxy)phenyl) acetamide] as the compound, how does the pIC50 read?
Answer: The pIC50 was greater than 8.60.

Question: How did the pIC50 turn out when `Cc1cc(CC(=O)Nc2cnn(C(C)(C)C)c2)ccc1Oc1ccnc2ccc(-c3cccn(C)c3=O)cc12` [Compound 246, N-(1-(tert-butyl)-1H-pyrazol-4-yl)-2-(3-methyl-4-((6-(1-methyl-2-oxo-1,2-dihydropyridin-3-yl)quinolin-4-yl)oxy)phenyl)acetamide] was run?
Answer: Its pIC50 is 8.42.

Question: How did the pIC50 turn out when `Cc1cc(Oc2ccnc3ccc(S(C)(=O)=O)cc23)c(C)cc1CC(=O)Nc1cnn(C(C)(C)C)c1` [Compound 446, N-(1-(tert-butyl)-1H-pyrazol-4-yl)-2-(2,5-dimethyl-4-((6-(methylsulfonyl)quinolin-4-yl)oxy)phenyl)acetamide] was run?
Answer: The pIC50 was 7.67.

Question: How did the pIC50 turn out when `COCCN1CCC(Oc2ccc3ncnc(Oc4ccc(CC(=O)Nc5cnn(C(C)(C)C)c5)cc4C)c3c2)CC1` [Compound 177, N-(1-(tert-butyl)-1H-pyrazol-4-yl)-2-(4-((6-((1-(2-methoxyethyl)piperidin-4-yl)oxy)quinazolin-4-yl)oxy)-3-methylphenyl) acetamide] was run?
Answer: Its pIC50 is greater than 8.60.

Question: How did the pIC50 turn out when `Cc1cc(CC(=O)Nc2cnn(C(C)(C)C)c2)ccc1Oc1ccnc2ccc(O[C@H]3CC[C@H](N)CC3)cc12` [Compound 122, 2-(4-((6-(((1r,4r)-4-aminocyclohexyl)oxy)quinolin-4-yl)oxy)-3-methylphenyl)-N-(1-(tert-butyl)-1H-pyrazol-4-yl)acetamide] was run?
Answer: Its pIC50 is greater than 8.60.

Question: `Cc1c(Oc2ncnc3ccc(OC4CCN(C)CC4)cc23)ccc(CC(=O)Nc2cnn(C(C)(C)C)c2)c1F` [Compound 107, N-(1-(tert-butyl)-1H-pyrazol-4-yl)-2-(2-fluoro-3-methyl-4-((6-((1-methyl-piperidin-4-yl)oxy)quinazolin-4-yl)oxy)phenyl) acetamide] was tested. Which pIC50 did it give?
Answer: The pIC50 was greater than 8.60.

Question: `Cc1cc(CC(=O)Nc2cnn(C(C)(C)C)c2)ccc1Oc1ccnc2ccc(S(=O)(=O)C(C)C)cc12` [Compound 206, N-(1-(tert-butyl)-1H-pyrazol-4-yl)-2-(4-((6-(isopropylsulfonyl)quinolin-4-yl)oxy)-3-methylphenyl)acetamide] was tested. Which pIC50 did it give?
Answer: Its pIC50 is greater than 8.60.

Question: With `CC(C)c1cc(NC(=O)Cc2ccc(Oc3ccnc4ccc(S(C)(=O)=O)cc34)cc2F)nn1C` [Compound 144, 2-(2-fluoro-4-((6-(methylsulfonyl)quinolin-4-yl)oxy)phenyl)-N-(5-isopropyl-1-methyl-1H-pyrazol-3-yl)acetamide] as the compound, how does the pIC50 read?
Answer: The pIC50 was greater than 8.60.

Question: With `CC(C)(C)n1cc(NC(=O)Cc2ccc(Oc3ncnc4ccc(OCCN5CCCC5)cc34)cc2F)cn1` [Compound 17, N-(1-(tert-butyl)-1H-pyrazol-4-yl)-2-(2-fluoro-4-((6-(2-(pyrrolidin-1-yl)ethoxy)quinazolin-4-yl)oxy)phenyl) acetamide] as the compound, how does the pIC50 read?
Answer: The pIC50 was 7.56.

Question: `CC(C)(C)n1cc(NC(=O)Cc2ccc(Oc3ccnc4ccc(S(=O)(=O)C5CC5)cc34)c(C(F)F)c2)cn1` [Compound 418, N-(1-(tert-butyl)-1H-pyrazol-4-yl)-2-(4-((6-(cyclopropyl-sulfonyl)quinolin-4-yl)oxy)-3-(difluoromethyl)phenyl)acetamide] was tested. Which pIC50 did it give?
Answer: The pIC50 was greater than 8.60.

Question: With `Cc1c(Oc2ccnc3ccc(C(=O)N[C@H]4C[C@@H](O)C4)cc23)ccc(CC(=O)Nc2cnn(C(C)(C)C)c2)c1F` [Compound 402, 4-(4-(2-((1-(tert-butyl)-1H-pyrazol-4-yl)amino)-2-oxoethyl)-3-fluoro-2-methyl-phenoxy)-N-((1s,3s)-3-hydroxy-cyclobutyl) quinoline-6-carboxamide] as the compound, how does the pIC50 read?
Answer: Its pIC50 is greater than 8.60.

Question: How did the pIC50 turn out when `COCCN(C)S(=O)(=O)c1ccc2nccc(Oc3ccc(CC(=O)Nc4cnn(C(C)(C)C)c4)cc3C)c2c1` [Compound 263, N-(1-(tert-butyl)-1H-pyrazol-4-yl)-2-(4-((6-(N-(2-methoxyethyl)-N-methylsulfamoyl)quinolin-4-yl)oxy)-3-methylphenyl)acetamide] was run?
Answer: Its pIC50 is greater than 8.60.
